From patent publication US20240034999A1, “IMPROVED REPROGRAMMING, MAINTENANCE AND PRESERVATION FOR INDUCED PLURIPOTENT STEM CELLS” (Fate Therapeutics, Inc., priority 2020, published 2024)

Test system: Human T cells transfected with reprogramming plasmids
Assay: T cell reprogramming efficiency, flow cytometry of iPSC surface markers
Type: cell-based
Settings: VPA from around day 2-3 post transfection; three T cell donors; versus no VPA
Protocol: Flow Cytometry Analysis and Sorting Single cell dissociated reprogramming pools were resuspended in chilled staining buffer. Conjugated primary antibodies, including SSEA4-FITC, TRA181-Alexa Fluor-647 and CD30-PE (BD Biosciences), were added to the cell solution and incubated on ice for 15 min. All antibodies were used at 7-10 μL in 100 μL staining buffer per million cells. The resuspended dissociated single cells in staining buffer were spun down and resuspended in staining buffer now containing a ROCK inhibitor and maintained on ice for flow cytometry sorting. Flow cytometry sorting was performed on FACS Aria II (BD Biosciences). The sorted cells were directly ejected into 96-well plates at concentrations of 3 and 9 events per well. Each well was prefilled with FMM2. Upon completion of the sort, 96-well plates were incubated for colony formation and expansion. Seven to ten days post sort, the cells were passaged. Subsequent passages in FMM2 were done routinely upon 75-90% confluency. Flow cytometry analysis was performed on Guava EasyCyte 8 HT (Millipore) and analyzed using FCS Express 4 (De Novo Software). Human T cells from three different donors were transfected with the above reprogramming plasmids on day 0. […] The expression of iPSC surface markers (SSEA4, TRA-1-81, and CD30) was analyzed by flow cytometry.

CCCC(CCC)C(=O)O [VPA, valproic acid]
percentage of SSEA4+TRA-1-81+CD30+ iPSC cells in the population: significantly increased
